Source: EP3398599A1, “COMPOSITIONS AND METHODS FOR PROPHYLAXIS AND TREATMENT OF ADDICTIONS” (priority 2009, dated 2010)

Tested on: Long Evans rats
Assay: Yohimbine-induced reinstatement of nicotine seeking
Type: in vivo
Conditions: yohimbine 2.0 mg/kg/ml; p<0.001
Procedure: Stress and anxiety are major factors in resuming nicotine use in former abstinent users. […] Briefly, following acquisition of a stable baseline of IV nicotine self-administration (30µg/0.1ml/infusion), male Long Evans rats (n=8) were subjected to an extinction period of 5 days.
Reinstatement experiments and relative drug treatments were performed every third day. Between reinstatements, extinction baseline was re-established.

COC(=O)[C@@H]1[C@H]2C[C@H]3c4[nH]c5ccccc5c4CCN3C[C@@H]2CC[C@@H]1O [yohimbine]
reinstatement of responding (nicotine seeking) compared to extinction: significant reinstatement of responding
